Tests used:
[1] = test system: Caco-2 colon adenocarcinoma cells; assay: MTT cell viability assay, Caco-2; type: cell-based; details: Homo sapiens, Caco-2 (not expressing Tau), 72 h, mean ± SEM, read-out: IC50 (metabolic activity)
Protocol: (§1) Cells harvested from sub-confluent monolayers were seeded at 15,000 cells per mL in a 96-well microtiter plate (Cambridge Technology, Labège, France) and cultured for 24 h under standard conditions. Standard medium was then replaced by fresh medium containing no drugs or compounds at different concentrations. The surviving cells were quantified after 72 h by the MTT assay, according to the manufacturer’s instructions. Briefly, 20 µL of 3-(4,5-diMethylThiazol-2-yl)-2,5diphenyl Tetrazolium bromide (MTT) solution at 5 mg.mL^−1 was added to cells for 3 h at 37 °C. The supernatant was discarded and replaced by 100 µL of dimethyl sulfoxide to dissolve formazan crystals. The absorbance was then read at 600 nm by spectrophotometry. For all concentrations of a given compound, cell viability was expressed as the percentage of the ratio between the mean absorbance of treated cells and the mean absorbance of untreated cells. Three independent experiments were performed, and the data were expressed as percentage of survival (using the untreated cells as 100%) and subjected to statistical analysis (n = 3). The IC50 was calculated using the Chou and Talalay method.

[2] = test system: U87 shCTRL cells; assay: MTT cell viability assay, U87 shCTRL (expressing Tau); type: cell-based, human; details: for IC50: Homo sapiens, U87 shCTRL, 72 h, MTT, mean ± SEM, read-out: IC50 (metabolic activity)
Protocol: All cell lines were purchased from ATCC, Gaithersburg, MD, USA. Cells from human glioblastoma (clones U87 wt, HTB-14; U118, HTB-15; U251, HTB-12; U138, HTB-16), neuroblastoma (clone SK-N-SH, HTB-11), and colorectal adenocarcinoma (clone Caco-2, HTB-37) were routinely grown at 37 °C in a humidified atmosphere containing 5% CO2. Cells were maintained by regular passages in complete media supplemented with 10% FBS, 2mM of L-glutamine, 100 U/mL of penicillin, and 50 U/mL of streptomycin (Invitrogen, Paris, France). For U87 wt, U251, U138, and SK-N-SH cells, the medium consisted of EMEM (Lonza, Levallois Perret, France). U118 and Caco-2 lines were maintained in DMEM. The U87 wt-derived lines, U87 shCTRL, and U87 shTau2 cells were continuously maintained in complete EMEM medium supplemented with 0.4 µg/mL of puromycin. The shRNA sequences and the protocol of clone selection and Tau downregulation were previously described in [20]. For Tau expression rescue, the U87 shCTRL and U87 shTau cells were seeded two days prior to experiments at 4.10^5 cells per 60 mm dish in 6 mL of complete medium. Cells were transfected using LipofectAmine 2000 according to Invitrogen instructions and 8 µg EGFP-free plasmid constructs (for U87 shCTRL) and EGFP-hTau40 plasmid constructs (for U87 shTau) were used in total. One day prior to experiments, all cells were plated in a 96-well microtiter plate to prepare for viability assays. Cells were free from mycoplasma as determined by mycoalert tests (Lonza).
as §1

[3] = target: T1, mature Tau aggregates (Homo sapiens, UniProt P10636); assay: Dissolution of preformed (mature) Tau aggregates, ThS fluorescence; type: biochemical; details: 10, 30 and 100 µM added to ThS-labelled aggregates after 8 h, 37 °C
T1 construct: The full-length human Tau (hTau40) was expressed in a transformed E. coli BL21 (DE3) strain; made in house; host or cells: E. coli BL21 (DE3)
T1 sequence (P10636 1-441 isoform P10636-8): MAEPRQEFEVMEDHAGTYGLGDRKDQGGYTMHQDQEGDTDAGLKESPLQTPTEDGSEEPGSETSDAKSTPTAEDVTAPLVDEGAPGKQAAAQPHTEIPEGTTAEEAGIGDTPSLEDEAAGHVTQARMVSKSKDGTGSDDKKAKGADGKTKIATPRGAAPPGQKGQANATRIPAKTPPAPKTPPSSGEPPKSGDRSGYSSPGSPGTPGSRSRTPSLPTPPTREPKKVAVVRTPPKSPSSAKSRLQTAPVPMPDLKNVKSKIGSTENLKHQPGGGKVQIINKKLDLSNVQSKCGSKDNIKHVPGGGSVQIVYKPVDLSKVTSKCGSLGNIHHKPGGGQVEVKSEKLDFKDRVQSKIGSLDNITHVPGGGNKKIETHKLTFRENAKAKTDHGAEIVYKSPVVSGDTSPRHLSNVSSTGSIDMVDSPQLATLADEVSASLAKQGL
Protocol: Moreover, we performed a qualitative study of the ability of QCT and compounds 1, 5, and 9 to dissolve preformed Tau aggregates (Figure 3).
Eight-hour time courses were performed with ThS to monitor heparin-induced Tau aggregation by spectrofluorometry at 520 nm (37 °C), then 10, 30, and 100 µM of compounds (curves b–d) were added to the ThS-labelled Tau aggregates. A control was performed without compound (curve a).

[4] = test system: U87 glioblastoma cells; assay: MTT cell viability assay, U87; type: cell-based, human; details: for IC50: Homo sapiens, U87, 72 h, MTT, mean ± SEM, read-out: IC50 (metabolic activity)
Protocol: as §1

[5] = target: T2, Tau-induced microtubule assembly (tubulin) (Homo sapiens, UniProt P10636); assay: Turbidimetry of in vitro Tau-induced microtubule assembly; type: biochemical, lamb; details: 10 µM tubulin, 5 µM Tau, 2.5–50 µM compound, 37 °C
T2 construct: The full-length human Tau (hTau40) was expressed in a transformed E. coli BL21 (DE3) strain; made in house; host or cells: Tau: E. coli BL21 (DE3); tubulin: purified from lamb brain tissue
T2 sequence (P10636 2-441 isoform P10636-8): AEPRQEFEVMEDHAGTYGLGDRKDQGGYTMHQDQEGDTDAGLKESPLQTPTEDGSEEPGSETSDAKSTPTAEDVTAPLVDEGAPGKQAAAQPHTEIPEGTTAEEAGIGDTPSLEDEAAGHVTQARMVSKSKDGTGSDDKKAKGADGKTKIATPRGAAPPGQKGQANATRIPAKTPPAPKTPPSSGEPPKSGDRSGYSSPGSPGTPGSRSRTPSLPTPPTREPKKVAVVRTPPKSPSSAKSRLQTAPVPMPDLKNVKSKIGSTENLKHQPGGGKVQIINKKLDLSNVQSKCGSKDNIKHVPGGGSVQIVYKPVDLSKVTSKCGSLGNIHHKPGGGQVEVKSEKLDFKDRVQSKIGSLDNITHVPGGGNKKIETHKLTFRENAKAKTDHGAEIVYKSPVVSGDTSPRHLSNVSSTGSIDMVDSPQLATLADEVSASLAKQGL
Protocol: The polymerization of tubulin was monitored by measuring the apparent absorbance at 350 nm using a Beckman DU 7400 spectrophotometer at 37 °C. Tubulin at a final concentration of 10 µM was mixed with compounds at the indicated concentration and immediately placed into the spectrometer chamber. When the signal was stable, Tau at a final concentration of 5 µM was added to induce microtubule formation. Measurements were continued until turbidity values reached a plateau.

Row | Compound | IC50 [1] | IC50 [2] | Ability to dissolve mature (preformed) Tau aggregates [3] | IC50 [4] | effect on turbidity time course of Tau-induced microtubule assembly [5] | activity against U87 shCTRL cells compared to U87 shTau cells ([2]; ratio of IC50 values) | IC50 value fold lower than 1 ([4]; U87 cell line)
1 | Nc1nc2ccc3oc(C(=O)O)cc(=O)c3c2s1 [Compound 5] | > 100 µM | > 100 µM | no significant change of ThS fluorescence intensity | > 100 µM | no effect on the turbidity time course |  | 
2 | Nc1nc2ccc3oc(-c4cccc(Oc5ccccc5)c4)cc(=O)c3c2s1 [Compound 2, 2-amino-7-(3-phenoxyphenyl)-9H-chromeno [6,5-d]thiazol-9-one] | > 100 µM | 1.4 ± 0.5 µM | able to dissolve mature Tau aggregates | 1.9 ± 0.7 µM | no effect on the turbidity time course | 3 times | up to 10 fold
